Assay results reported in patent US20220339135A1, “COMPOSITIONS AND METHODS FOR MODULATING AN INFLAMMATORY RESPONSE” (Enzychem Lifesciences Corporation, priority 2019, published 2022).

How the values were obtained:
[1] = test system: MIP2 and CXCL8 in BMDM and THP-1; assay: Gemcitabine-induced MIP-2 / CXCL8, RT-PCR and ELISA; assay type: cell-based; settings: dose-dependent
Description: Total RNA was extracted using the Total RNA Extraction Solution (Favorgen, Taiwan), according to the manufacturer's instructions. This RNA was used in reverse transcription reactions with oligo-dT primers and M-MLV RT reagents (Promega, Madison, Wis., USA), according to the manufacturer's instructions. For RT-PCR, the synthesized cDNA was mixed with 2×PCR Master Mix (Solgent, Daejeon, Republic of Korea) and 10 pmol specific PCR primer pair following the manufacturer's protocol. […] An SYBR Green kit (Applied Biosystems, Foster City, Calif., USA) was used for real-time PCR (qPCR) analysis of cDNA according to the manufacturer's instructions. […] The relative expression levels of target genes were calculated by the 2^-ΔΔCT relative quantification method. […] The concentration of MIP-2 was measured using ELISA kits for MIP-2 (R&D Systems, Minneapolis, Minn., USA according to the manufacturers' instructions. Cytokine levels were estimated by interpolation from a standard curve generated using an ELISA reader (Molecular Devices) at 450 nm. Total RNAs from cells were isolated using TRIzol® reagent (Invitrogen, CA, USA) according to the manufacturer's instructions. RT-PCR was performed using PCR reagent (Bioassay, Daejeon, South Korea). […]

[2] = test system: TLR4/MD2 on the surface of Raw264.7 cells; assay: LPS-induced TLR4/MD2 internalization, confocal microscopy; assay type: cell-based; settings: LPS/PLH compared to LPS treated cells
Description: Raw264.7 cells were divided into two groups: 1) LPS treated group and 2) LPS/PLAG treated group. For LPS treated group, cells were stimulated with LPS (100 ng/ml) for 0, 15, 30, 45, 60, 75, 90, 105, 120 minutes. For LPS/PLAG treatment, cells were pre-incubated with PLAG (100 μg/ml) for 1 hour and then stimulated with LPS (100 ng/ml) for 0, 15, 30, 45, 60, 75, 90, 105, 120 minutes. To detect TLR4/MD2 on the membrane surface, cells were fixed with 2% paraformaldehyde (Sigma-Aldrich) and were blocked with PBS containing 1% BSA (Gibco, Waltham, Mass., USA). They were incubated with rabbit anti-TLR4/MD2 antibody (Thermo) and Alexa488 conjugated anti-rabbit IgG (Invitrogen). For confocal microscopy analysis, cells were washed with PBS and mounted in DAPI-containing fluorescence microscopy mounting medium (Invitrogen). Samples were analyzed with a laser scanning confocal microscope (Carl Zeiss, Oberkochen, Germany).
Raw264.7 cells were divided into two groups: 1) LPS treated group and 2) LPS/PLAG treated group. […] These were analyzed by confocal microscopy. […]
To detect TLR4/MD2 on the membrane surface, cells were fixed with 2% paraformaldehyde (Sigma-Aldrich) and were blocked with PBS containing 1% BSA (Gibco, Waltham, Mass., USA). […] For confocal microscopy analysis, cells were washed with PBS and mounted in DAPI-containing fluorescence microscopy mounting medium (Invitrogen). […]

Structure (SMILES) | gemcitabine-induced chemokines MIP2 and CXCL8, transcriptional and secreted protein level [1] | effect on TLR4/MD2 internalization and return to the surface [2]
CCCCC/C=C\C/C=C\CCCCCCCC(=O)OC(COC(C)=O)COC(=O)CCCCCCCCCCCCCCC (racemic) [PLAG, 1-palmitoyl-2-linoleoyl-3-acetylglycerol] | effectively reduced | –
CCCCC/C=C\C/C=C\CCCCCCCC(=O)OC(CO)COC(=O)CCCCCCCCCCCCCCC (centres unmarked) [PLH, palmitic linoleic hydroxyl glycerol, reference compound] | – | had no effect
